Measurements from EP0837071A1, “Tripeptide antithrombotic agents” (ELI LILLY AND COMPANY, priority 1990, dated 1992).
Where “and” joins values, the source holds several entries; their conditions need not be identical. Equal entries are not always repeated. Structures can show the parent of a compound that is named as a salt. Where two headings read alike, the source gives them in different places. Square brackets hold non-standard residues; d marks the D form. Peptide text beside a SMILES is read from it. * marks the point of attachment. dNMePhg = CN[C@@H](C(=O)O)c1ccccc1; dHpg = N[C@@H](C(=O)O)c1ccc(O)cc1; dChg = N[C@@H](C(=O)O)C1CCCCC1; dPhg = N[C@@H](C(=O)O)c1ccccc1; Boc = CC(C)(C)OC(=O)*

Experiments:
[1] = target: T1, bovine thrombin (Bos taurus, UniProt P00735); assay: Plasma coagulation assay: thrombin time; type: biochemical; conditions: for EC (2-fold clotting time): read-out: Thrombin Time: concentration of test compounds required to prolong coagulation by 2-fold
T1 construct: 50 µl bovine thrombin (2 NIH unit/ml)
Description: (§1) The numerical values in the table are the concentrations of the test compounds (ng/ml) required to prolong coagulation by 2-fold in the three tests. The thrombin time evaluation was carried out in plasma and separately determined in a buffer system at […].
(§2) The data presented in Table 2 were obtained using a CoaScreener instrument from Tecan, Inc. in the assay protocols listed below. Prothrombin Time: 50 µl plasma 50 µl saline 7 µl test solution 50 µl thromboplastin (Dade) Thrombin Time: 50 µl plasma 50 µl saline 7 µl test compound 50 µl bovine thrombin (2 NIH unit/ml) In the Thrombin Time determined in pH 7.4 buffer fibrinogen was used instead of plasma. APTT: 50 µl plasma 50 µl Actin (Dade) 7 µl test solution 50 µl CaCl2 (0.01M).

[2] = target: T2, thrombin (Bos taurus, UniProt P00735); assay: Inhibition of thrombin amidase activity (chromogenic substrate N-benzoyl-D-phenylalanyl-L-valyl-L-arginyl-p-nitroanilide); type: biochemical
T2 construct: purchased
Description: The data in the table were obtained in an assay in which thrombin hydrolyzes the chromogenic substrate, N-benzoyl-D-phenylalanyl-L-valyl-L-arginyl-p-nitroanilide.
The assay was carried out in 50 µl buffer (0.03M Tris, 0.15M NaCl, pH 7.4) with 25 µl of thrombin solution (0.21 mg/ml of thrombostat powder in 0.06 M Tris, 0.3M NaCl, pH 7.4) and 150 µl of an aqueous solution of the chromogenic substrate at a concentration of 0.25 mg/ml. Solutions of test compound (25 µl) at various concentrations were added. […] Standard curves were constructed by plotting free thrombin concentration against hydrolysis rate. […] The amount of free inhibitor in each assay was calculated by subtracting the number of moles of bound thrombin from the number of moles of added inhibitor (test compound).
The Kass value is the hypothetical equilibrium constant for the reaction between thrombin and the test compouhnd (I). Thrombin + I ⇄ Thrombin - I [formula] Kass =([Thrombin I])/([ (Thrombin) x (I) ]) [formula]
Kass was calculated for a range of concentrations of test compounds and the mean value is reported in units of liter per mole.

[3] = test system: plasma; assay: Plasma coagulation assay: activated partial thromboplastin time (APTT); type: biochemical; conditions: Actin (Dade), CaCl2
Description: as §1, §2

[4] = test system: plasma; assay: Plasma coagulation assay: prothrombin time; type: biochemical; conditions: thromboplastin (Dade)
Description: as §1, §2

[5] = target: T1, bovine thrombin; assay: Thrombin time in buffer (fibrinogen instead of plasma); type: biochemical
Description: as §1, §2

[6] = test system: Arterial Thrombosis in the Rat; assay: FeCl3-induced arterial thrombosis in the carotid artery of the rat; type: in vivo; conditions: infusion from 15 min before to 60 min after FeCl3 application, NA = Not active at 4 mg/kg/h or at 7 mg/kg/h, the highest doses tested
Description: The antithrombotic activity of representative compounds of the invention was determined in in vivo tests carried out in the rat. The test employed induced arterial thrombosis in the carotid artery of the rat and measured the infusion dose of test compound required to maintain blood flow for fifty minutes past the time of occlusion. The test was performed as follows.
Arterial thrombosis was induced in the rat by injury of the carotid artery. Topical application of a ferric chloride solution was used to injure the vessel. […] Animals were laid on a water blanket in which the circulated water was maintained at 37° C. The carotid artery was approached through a midline cervical incision. Careful blunt dissection was used to expose and isolate the vessel from the carotid sheath. A silk suture was pulled underneath the artery to lift the vessel to provide clearance to insert a thermocouple underneath it. […] The discs were cut to equal size using sharpened stainless steel tubing (3 mm i.d.) chucked in a drill press. A saturated disc was placed on each carotid artery above the thermocouple. The time between FeCl3 application and the time at which temperature decreased abruptly was recorded as time to occlusion (TTO) of the vessel. The average time required for both vessels to occlude was used to represent TTO for each animal.
Test compounds were dissolved in isotonic saline. A syringe pump was used to infuse drug solutions starting 15 min before FeCl3 application and continuing for 60 min after FeCl3 application. Dose-response curves were plotted to determine the relationship between the log10 of the infused doses and the TTO of the injured arteries.
The association between vessel occlusion and the abrupt temperature decrease was established by simultaneously recording the temperature and blood flow on the same recorder. A pulsed Doppler flow probe was placed around the carotid artery proximal to the thermocouple. […] Results were reported as percent change from initial baseline values (6 min before occlusion). The time at which vessel temperature decreased rapidly was arbitrarily established as zero and pre- and post-occlusion temperature and flow values were referenced from that point.

[7] = plasma, bovine thrombin (2 NIH unit/ml)
[8] = Thrombin Amidase Kass, apparent equilibrium (association) constant, mean over a range of concentrations, pH 7.4, acetate salts unless indicated otherwise
[9] = apparent equilibrium (association) constant, mean over a range of concentrations, pH 7.4, acetate salts unless indicated otherwise, read-out: Thrombin Amidase Kass (converted)
[10] = buffer pH 7.5, fibrinogen instead of plasma, read-out: Buffer (pH 7.5) Thrombin Time: concentration of test compounds required to prolong coagulation by 2-fold

SMILES | EC (2-fold clotting time) [1, 7] [µg/mL] | Kd [2, 8] | APTT: concentration of test compounds required to prolong coagulation by 2-fold [3] [ng/mL] | Prothrombin Time: concentration of test compounds required to prolong coagulation by 2-fold [4] [ng/mL] | other results
CO[C@@H](C(=O)N1CCC[C@H]1C(=O)N[C@H](C=O)CCCNC(=N)N)c1ccccc1 [(R)-α-Methoxyphenylacetyl] |  |  | >909 | >909 | Kd [2, 9]: 238 nM
C[C@H](C(=O)N1CCC[C@H]1C(=O)N[C@H](C=O)CCCNC(=N)N)c1ccccc1 [(S)-α-Methylphenylacetyl] |  |  |  |  | Kd [2, 9]: 5000 nM
N=C(N)NCCC[C@@H](C=O)NC(=O)[C@@H]1CCCN1C(=O)C1NCCc2ccccc21 (mixture of isomers) |  | 11.4 nM |  |  | 
N=C(N)NCCC[C@@H](C=O)NC(=O)[C@@H]1CCCN1C(=O)[C@H](N)c1ccccc1 [D-Phenylglycyl, D-Phg-L-Pro-L-Arg-H] (H-[dPhg]-Pro-Arg-aldehyde) | 0.091 |  | 1139 | 91 | 
CC(C)(C)OC(=O)N[C@@H](C(=O)N1CCC[C@H]1C(=O)N[C@H](C=O)CCCNC(=N)N)c1cccs1 [N-Boc-D-2-thienyiglycyl] |  | 71.4 nM |  |  | 
CC(C)(C)OC(=O)N[C@@H](C(=O)N1CCC[C@H]1C(=O)N[C@H](C=O)CCCNC(=N)N)c1ccc2ccccc2c1 [N-Boc-D-2-naphthylglycyl, N-Boc-D-2-naphthylglycyl-Pro-Arg-H diacetate] |  |  | 1200 | 1200 | Thrombin Time: concentration of test compounds required to prolong coagulation by 2-fold [1, 7]: 230 ng/mL; Buffer (pH 7.5) Thrombin Time: concentration of test compounds required to prolong coagulation by 2-fold ([5]; buffer pH 7.5, fibrinogen instead of plasma): 142 ng/ml; Kd [2]: 45 nM
CC(C)(C)OC(=O)N1CCc2ccccc2C1C(=O)N1CCC[C@H]1C(=O)N[C@H](C=O)CCCNC(=N)N (mixture of isomers) [Boc-1,2,3,4-tetrahydroisoquinolin-1-ylcarbonyl-Pro-Arg-H] |  | 263 nM |  |  | 
CC(C)(C)OC(=O)N[C@@H](C(=O)N1CCC[C@H]1C(=O)N[C@H](C=O)CCCNC(=N)N)c1ccc(O)cc1 [N-Boc-D-(4-hydroxy)phenylglycyl, N-Boc-D-(4-hydroxyphenylglycyl)-Pro-Arg-H diacetate] (Boc-[dHpg]-Pro-Arg-aldehyde) | 0.182 |  | 1091 | 1636 | 
COc1ccc([C@@H](NC(C)=O)C(=O)N2CCC[C@H]2C(=O)N[C@H](C=O)CCCNC(=N)N)cc1 [N-Acetyl-D-(4-methoxy)phenylglycyl] | 0.16 | 64.5 nM | 2600 | 900 | 
CC(C)(C)OC(=O)N[C@@H](C(=O)N1CCC[C@H]1C(=O)N[C@H](C=O)CCCNC(=N)N)c1ccccc1 [N-Boc-D-phenylglycyl, N-(t-Butyloxycarbonyl)-D-phenylglycyl-L-Prolyl-L-Arginine aldehyde (Boc-D-Phg-Pro-Arg-H) diacetate salt] (Boc-[dPhg]-Pro-Arg-aldehyde) |  |  | 1169 | 667 | EC (2-fold clotting time) [1]: 0.11 µg/mL; EC (2-fold clotting time) ([5]; pH 7.5, read-out: Buffer (pH 7.5) Thrombin Time: concentration of test compounds required to prolong coagulation by 2-fold): 0.118 µg/mL; ED50 (infusion dose required to maintain blood flow for 50 min) [6]: 2.9 mg/kg/h
CC(C)(C)OC(=O)N[C@@H](C(=O)N1CCC[C@H]1C(=O)N[C@H](C=O)CCCN=C(N)N)c1ccc(O)cc1 [N-Boc-D-(4-hydroxy)phenylglycyl, N-Boc-D-(4-hydroxyphenylglycyl)-Pro-Arg-H diacetate] (Boc-[dHpg]-Pro-Arg-aldehyde) |  | 8.7 nM |  |  | 
C[C@@H](C(=O)N1CCC[C@H]1C(=O)N[C@H](C=O)CCCNC(=N)N)c1ccccc1 [(R)-α-Methylphenylacetyl] |  |  |  |  | Kd [2, 9]: 90.9 nM
NC(N)=NCCC[C@@H](C=O)NC(=O)[C@@H]1CCCN1C(=O)[C@H](N)c1ccccc1 [D-Phenylglycyl, D-Phg-L-Pro-L-Arg-H] (H-[dPhg]-Pro-Arg-aldehyde) |  | 13.3 nM |  |  | 
CC[C@@H](C(=O)N1CCC[C@H]1C(=O)N[C@H](C=O)CCCNC(=N)N)c1ccccc1 [(R)-α-Ethylphenylacetyl] |  |  | 2275 | 700 | Kd [2, 9]: 133 nM

Continued, in another order:

EC (2-fold clotting time) [1, 7] [µg/mL] | Kd [2, 8] | SMILES | APTT: concentration of test compounds required to prolong coagulation by 2-fold [3] [ng/mL] | Prothrombin Time: concentration of test compounds required to prolong coagulation by 2-fold [4] [ng/mL] | other results
0.08 | 13.3 nM | COc1ccc([C@@H](NC(=O)OC(C)(C)C)C(=O)N2CCC[C@H]2C(=O)N[C@H](C=O)CCCNC(=N)N)cc1 [N-Boc-D-(4-methoxy)phenylglycyl] | 640 |  | 
0.3 | 192 nM | CN(C(=O)OC(C)(C)C)[C@@H](C(=O)N1CCC[C@H]1C(=O)N[C@H](C=O)CCCNC(=N)N)c1ccccc1 [N-Boc-N-methyl-D-phenylglcyl] (Boc-[dNMePhg]-Pro-Arg-aldehyde) | 4545 | 300 | 
 | 11.4 nM and 13.7 nM | CC(C)(C)OC(=O)N[C@@H](C(=O)N1CCC[C@H]1C(=O)N[C@H](C=O)CCCN=C(N)N)c1ccccc1 [N-Boc-D-phenylglycyl, N-(t-Butyloxycarbonyl)-D-phenylglycyl-L-Prolyl-L-Arginine aldehyde (Boc-D-Phg-Pro-Arg-H) diacetate salt] (Boc-[dPhg]-Pro-Arg-aldehyde) |  |  | 
 | 9.35 nM | CC(C)(C)OC(=O)N[C@@H](C(=O)N1CCC[C@H]1C(=O)N[C@H](C=O)CCCN=C(N)N)c1ccccc1 [N-Boc-D-phenylglycyl (sulfate salt), N-Boc-D-Phenylglycyl-L-Prolyl-L-Arginine aldehyde (Boc-D-Phg-Pro-Arg-H) hemisulfate] (Boc-[dPhg]-Pro-Arg-aldehyde) |  |  | 
 | 8.33 nM | CC(C)(C)OC(=O)N[C@@H](C(=O)N1CCC[C@H]1C(=O)N[C@H](C=O)CCCN=C(N)N)C1CCCCC1 [N-Boc-D-cyclohexylglycyl] (Boc-[dChg]-Pro-Arg-aldehyde) |  |  | 
0.079 |  | CC(C)(C)OC(=O)N[C@@H](C(=O)N1CCC[C@H]1C(=O)N[C@H](C=O)CCCNC(=N)N)C1CCCCC1 [N-Boc-D-cyclohexylglycyl] (Boc-[dChg]-Pro-Arg-aldehyde) | 748 | 522 | EC (2-fold clotting time) [5, 10]: 0.06 µg/mL; ED50 (infusion dose required to maintain blood flow for 50 min) [6]: 11.3 mg/kg/h
0.092 | 10.9 nM | CN[C@@H](C(=O)N1CCC[C@H]1C(=O)N[C@H](C=O)CCCNC(=N)N)c1ccccc1 [N-Methyl-D-phenylglycyl, N-methyl-D-phenylglycyl-L-prolyl-L-arginine aldehyde] (H-[dNMePhg]-Pro-Arg-aldehyde) | >909 | 899 | EC (2-fold clotting time) [5, 10]: 0.067 µg/mL
 | 25 nM | CC(C)(C)OC(=O)NC(C(=O)N1CCC[C@H]1C(=O)N[C@H](C=O)CCCNC(=N)N)c1ccc(Cl)c(Cl)c1 (mixture of isomers) [N-Boc-DL-(3,4-dichloro)phenylglycyl] |  |  | 
0.46 | 164 nM | COc1ccc2cc([C@@H](NC(=O)OC(C)(C)C)C(=O)N3CCC[C@H]3C(=O)N[C@H](C=O)CCCNC(=N)N)ccc2c1 [N-Boc-D-(6-methoxy)-2-naphthylglycyl] | 2239 | 35489 | EC (2-fold clotting time) [5, 10]: 0.466 µg/mL
